Columns and labels:
Assay type in all cases: physicochemical
[1] = accelerated aging test of polyurethane varnish deposited layer, 550 W/m^2, 72 h; conditions: 50 mg per g polyurethane solution
Method: A curing agent is added to a solution of polyurethane (70% by weight) in a xylene/toluene mixture.
A molecule of nonfunctionalized pyrene (CAS No. 129000) is added in a proportion of 50 mg of pyrene per gram of polyurethane solution.
The mixture is deposited by “knife coating” on a glass slide transparent to UV-A radiation.
After drying in ambient air, this slide is subjected to an accelerated aging test in a Suntest CPS chamber from Atlas. The aging conditions are as follows: irradiance at 550 W/m^2, xenon arc lamp equipped with a “sheet glass” filter which cuts off the UV radiation below 310 nm, exposure time 72 h.
The pyrene not in accordance with the invention is obviously not stable to light.

[2] = accelerated aging test (Suntest CPS) of silica sol-gel deposited layer, 620 W/m^2, 24 h; conditions: 0.5 mg/ml solution, xenon arc 620 W/m^2, cut-off 310 nm
Method: A silica sol-gel solution is formed by the hydrolysis of a silicon alkoxide (tetraethoxysilane, CAS No. 78-10-4) in the presence of ethanol and hydrochloric acid.
A 0.5 mg/ml aqueous pyrene-1-carboxylic solution is formed with a molar equivalent of sodium hydroxide.
One volume of the pyrene-1-carboxylic solution is mixed with an equivalent volume of the sol-gel solution: the mixture is deposited by “knife coating” on a microscope slide transparent to UV-A radiation.
After drying in ambient air, this slide is subjected to an accelerated aging test in a Suntest CPS chamber from Atlas.
The aging conditions are as follows: irradiance at 620 W/m^2, xenon arc lamp equipped with a “sheet glass” filter which cuts off the UV radiation below 310 nm, exposure time 24 h.
FIG. 1 reports the UV transmission spectra of the silica sol-gel deposited layer in which the pyrene-1-carboxylic is incorporated, before/after exposure.
The “light” stability of the pyrene-1-carboxylic compound is thus confirmed.

[3] = accelerated aging test of colored textile behind sol-gel filter layer (NF EN ISO 105-B2)
Method: A sol-gel deposited layer is produced on a glass slide under the same conditions as example 1 above, with a starting 5 mg/ml solution of pyrene-1-carboxylic.
This sample is used as filter affixed to a colored textile.
A glass slide not treated with this deposited layer is also affixed to another sample of the same colored textile for the purposes of reference sample.
The two samples are exposed to an accelerated aging test in a Suntest CPS chamber from Atlas. The aging conditions are as follows and in accordance with the standard NF EN ISO 105-B2: irradiance at 550 W/m^2, xenon arc lamp equipped with a “sheet glass” filter which cuts off the UV radiation below 310 nm, exposure time 72 h.

[4] = comparative accelerated aging test of pyrene derivatives in silica sol-gel layer; conditions: 0.5 mg/ml, 620 W/m^2, 24 h, black body 55° C, versus pyrenesulfonic, pyreneboronic, pyreneacetic
Method: A silica sol-gel solution as defined in example 1 is prepared.
At the same time, four aqueous solutions respectively comprising pyrenecarboxylic, pyrenesulfonic, pyreneboronic and pyreneacetic, at 0.5 mg/ml, with one molar equivalent of sodium hydroxide, are prepared.
A volume of each aqueous solution thus obtained is mixed with an equivalent volume of the sol-gel solution: each mixture obtained is subsequently deposited by “knife coating” on a microscope slide transparent to UV-A radiation.
After drying in ambient air, these slides are subjected to an accelerated aging test in a Suntest CPS chamber from Atlas.
The aging conditions are as follows: irradiance at 620 W/m^2, xenon arc lamp equipped with a “sheet glass” filter which cuts off the UV radiation below 310 nm, exposure time 24 h. The temperature for regulating the black body is 55° C.
FIG. 3 reports the absorption spectra of the different pyrene derivatives described above as a function of time.

[5] = stability toward solar irradiation (general statement); conditions: compared with conventional UV stabilizers / substituted benzotriazoles

Row | Compound | UV/vis transmission properties of the coating before/after exposure [1] | UV/visible transmission properties of the coating before/after exposure [2] | color change of the sol-gel deposited layer after exposure ([3]; 5 mg/ml solution, xenon arc 550 W/m^2, 72 h) | degradation grade on the scale of the blues of the protected colored textile ([3]; scale of 8 levels, 1 most degraded, 8 least degraded, 550 W/m^2, 72 h, untreated reference grade 1) | stability over time of absorption peak under UV [4] | stability toward solar irradiation / radiation [5]
1 | c1cc2ccc3cccc4ccc(c1)c2c34 [pyrene] | very significantly degraded |  |  |  |  | 
2 | O=C(O)c1ccc2ccc3cccc4ccc1c2c34 [pyrene-1-carboxylic, pyrene-1-carboxylic acid] |  | retained | has not changed in color | 4-5 | best stability over time | equivalent to that of substituted benzotriazoles

From patent US20130089724A1, “NOVEL ORGANIC UV ABSORBERS” (COMMISSARIAT A L'ENERGIE ATOMIQUE ET AUX ENERGIES …, priority 2010, published 2013)
